Experimental data from patent US6858585B1, “Cyclic depsipeptides and drugs containing the same as the active ingredient” (Nisshin Seifun Group Inc., priority 1996, dated 2005).
No end group written: not given here.

Columns and labels:
Assay type in all cases: cell-based, human
[1] = system: apolipoprotein A1 production in Hep G2 cells; assay: Production of apolipoprotein A1 in Hep G2 cells, enzyme immunoassay of cultured broth (Example 2); conditions: Conc. 1 μM, 7 hours, control = 100
Protocol: (§1) First, 1 ml portions of Hep G2 cells at 1×10^5 cells/ml suspended in D-MEM medium containing 10% fetal bovine serum were poured into a 24-well tissue culture plate and cultivation was carried out at 37° C. under atmosphere of a mixed gas composed of 5% carbon dioxide and 95% air for 3 days. Thereafter, the medium was removed by means of a pipette, 1 ml of fresh D-MEM medium was added and cultivation was again carried out at 37° C. under atmosphere of a mixed gas composed of 5% carbon dioxide and 95% air for one day. Then, the medium was removed by means of a pipette and washed three times with 0.5 ml of fresh D-MEM medium. 1 ml of fresh D-MEM medium was added and further 10 μl of a solution of the cyclic depsipeptide of the invention or Compound 1, 4, 5, 6, 7 or 8 dissolved in methanol at the concentration as shown in Table 3 was added. […]
It was again washed three times with 300 μl of PBS, 100 μl of the above Cultured Broths 7-10 was added and the mixture was allowed to stand at room temperature for 2 hours. […] The reaction was discontinued by the addition of 100 μl of 2N sulfuric acid, and absorbance at 490 nm was measured using absorbance at 650 nm as a control. An absolute amount of apolipoprotein A1 was determined upon a calibration curve drawn up when a commercially available apolipoprotein Al (manufactured by Sigma, U.S.A.) was used as a standard. […]

[2] = system: apolipoprotein B production in Hep G2 cells; assay: Production of apolipoprotein B in Hep G2 cells, enzyme immunoassay of cultured broth (Example 2); conditions: Conc. 1 μM, 7 hours, control = 100
Protocol: as §1, with “medium.” for “medium. 1 ml of fresh D-MEM medium was added and further 10 μl of a solution of the cyclic depsipeptide of the invention or Compound 1, 4, 5, 6, 7 or 8 dissolved in methanol at the concentration as shown in Table 3 was added.”
The sheep antihuman apolipoprotein B IgG fraction (manufactured by Bindingsite Co., Ltd., U.K.) was dissolved in a 0.05M aqueous sodium hydrogencarbonate solution (pH 9.5) at a concentration of 10 μg/ml. […] The reaction was discontinued by the addition of 100 μl of 2N sulfuric acid, and absorbance at 490 nm was measured using absorbance at 650 nm as a control. The absorbance obtained was defined as that of apolipoprotein B. An absolute amount of apolipoprotein B was determined upon a calibration curve drawn up when a commercially available low density lipoprotein (manufactured by Sigma, U.S.A.) was used as a standard. […]

[3] = system: apolipoprotein E production in Hep G2 cells; assay: Production of apolipoprotein E in Hep G2 cells, enzyme immunoassay of cultured broth (Example 2: 7 h with compound); conditions: Conc. 1 μM, control = 100
Protocol: The mouse antihuman apolipoprotein E monocional antibody (manufactured by BYOSIS, S. A., France) was dissolved in a 0.05M aqueous sodium hydrogencarbonate solution (pH 9.5) at a concentration of […]. 50 μl of this solution was poured in portions into a Nunk immunoplate, which was then allowed to stand at 4° C. for 16 hours. After washing thrice with 300 μl of PBS, 300 μl of the blocking solution was added and the mixture was allowed to stand at 37° C. for 2 hours.
It was again washed three times with 300 μl of PBS, 50 μl of the above cultured broth 1 was added and the mixture was allowed to stand at room temperature for 2 hours. After washing three times with 300 μl of PBS-T, 50 μl of a 3000-fold diluted solution (10% aqueous Block Ace solution) of goat anti-apolipoprotein E polyclonal antibody (manufactured by Chemicon Co., Ltd., U.S.A.) was added and the mixture was allowed to stand at room temperature for 2 hours. […] The reaction was discontinued by the addition of 100 μl of 2N sulfuric acid, and absorbance at 490 nm was measured using absorbance at 650 nm as a control. An absolute amount of apolipoprotein E in cultured broths 1-6 was determined upon a calibration curve drawn up when a commercially available apolipoprotein E (Chemicon Co., Ltd., U.S.A.) was used as a standard. […]

Compound 7 (QLLVDLI; ester (positions not given here); also: cyclic depsipeptide, ring closure places not given here)
Relative amount of apolipoprotein A1 (%) [1]: 135%
Relative amount of apolipoprotein B (%) [2]: 76%
Relative amount of apolipoprotein E (%) [3]: 163%
